Four molecules from patent US8524715B2, “Phenoxyacetic acid derivatives useful for treating respiratory diseases” (Astrazeneca AB, priority 2004, dated 2013) can be followed below.

This test concerns the target T1, rhCRTh2 (Homo sapiens, UniProt Q9Y5Y4).
T1 construct: expressed in transfected cells; host or cells: HEK cells (membrane preparation)
T1 sequence (Q9Y5Y4 1-395): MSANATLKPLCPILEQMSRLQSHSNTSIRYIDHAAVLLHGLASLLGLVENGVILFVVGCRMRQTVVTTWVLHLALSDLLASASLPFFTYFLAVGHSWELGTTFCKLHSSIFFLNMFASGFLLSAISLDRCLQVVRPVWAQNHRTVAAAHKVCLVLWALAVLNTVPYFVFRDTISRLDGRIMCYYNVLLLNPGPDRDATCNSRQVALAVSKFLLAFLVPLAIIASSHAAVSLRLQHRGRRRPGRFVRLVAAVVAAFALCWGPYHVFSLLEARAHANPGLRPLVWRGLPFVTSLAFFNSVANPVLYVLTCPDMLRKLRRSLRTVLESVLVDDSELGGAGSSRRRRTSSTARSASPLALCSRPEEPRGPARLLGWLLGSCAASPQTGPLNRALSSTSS
The experiment in a line: Ligand Binding Assay ([3H]PGD2 SPA binding). To be noted: [3H]PGD2 binding, membranes of HEK cells expressing rhCRTh2/Gα16, SPA beads, 2 hours room temperature; read-out: pIC50 value (converted). On the procedure:
[^3H]PGD2 was purchased from Perkin Elmer Life Sciences with a specific activity of 100-210 Ci/mmol. All other chemicals were of analytical grade.
HEK cells expressing rhCRTh2/Gα16 were routinely maintained in DMEM containing 10% Foetal Bovine Serum (HyClone), 1 mg/ml geneticin, 2 mM L-glutamine and 1% non-essential amino acids. For the preparation of membranes, the adherent transfected HEKcells were grown to confluence in two layer tissue culture factories (Fisher, catalogue number TKT-170-070E). Maximal levels of receptor expression were induced by addition of […] sodium butyrate for the last 18 hours of culture. The adherent cells were washed once with phosphate buffered saline (PBS, 50 ml per cell factory) and detached by the addition of 50 ml 0.1 mM dithiothreitol, 1 mM EDTA, 0.1 mM phenyl methyl sulphonyl fluoride and 100 μg/ml bacitracin]. Cells were pelleted by centrifugation at 220×g for 10 minutes at 4° C., re-suspended in half the original volume of fresh membrane homogenisation buffer and disrupted using a Polytron homogeniser for 2×20 second bursts keeping the tube in ice at all times. Unbroken cells were removed by centrifugation at 220×g for 10 minutes at 4° C. and the membrane fraction pelleted by centrifugation at 90000×g for 30 minutes at 4° C. The final pellet was re-suspended in 4 ml of membrane homogenisation buffer per cell factory used and the protein content determined. Membranes were stored at −80° C. in suitable aliquots.
All assays were performed in Corning clear bottomed, white 96-well NBS plates (Fisher). Prior to assay, the HEK cells membranes containing CRTh2 were coated onto SPA PVT WGA beads (Amersham). For coating membranes were incubated with beads at typically 25 μg membrane protein per mg beads at 4° C. with constant agitation overnight. (The optimum coating concentrations were determined for each batch of membranes) The beads were pelleted by centrifugation (800×g for 7 minutes at 4° C.), washed once with assay buffer (50 mM HEPES pH 7.4 containing 5 mM magnesium chloride) and finally re-suspended in assay buffer at a bead concentration of 10 mg/ml.
Each assay contained 20 μl of 6.25 nM [^3H]PGD2, 20 μl membrane saturated SPA beads both in assay buffer and 10 μl of compound solution or 13,14-dihydro-15-keto prostaglandin D2 (DK-PGD2, for determination of non-specific binding, Cayman chemical company).
Compounds and DK-PGD2 were dissolved in DMSO and diluted in the same solvent to 100× the required final concentration. […] The assay plate was incubated at room temperature for 2 hours and counted on a Wallac Microbeta liquid scintillation counter (1 minute per well).

For the molecule `CC1CN(Cc2cc(Cl)ccc2OCC(=O)O)CCN1S(=O)(=O)c1ccccc1` (stereo not shown) [example 57, [4-Chloro-2-[[3-methyl-4-(phenylsulfonyl)-1-piperazinyl]methyl]phenoxy]acetic Acid], the IC50 was 5.01 nM.

Take `C[C@H]1CN(Cc2cc(Cl)ccc2OCC(=O)O)CCN1C(=O)Cc1cccc(F)c1` [example 91, [4-chloro-2-[[(3S)-4-[(3-fluorophenyl)acetyl]-3-methyl-1-piperazinyl]methyl]phenoxy]-acetic Acid]: the IC50 is 15.8 nM.

As to `O=C(O)COc1ccc(C(F)(F)F)cc1CN1CCN(C(=O)Cc2cccs2)CC1` [Example 42, [2-[[4-(2-thienylacetyl)-1-piperazinyl]methyl]-4-(trifluoromethyl)phenoxy]-acetic Acid], the IC50 was 132 nM.

With `O=C(O)COc1ccc(C(F)(F)F)cc1CN1CCCN(S(=O)(=O)c2ccc(F)cc2)CC1` [example 7, [2-[[4-[(4-fluorophenyl)sulfonyl]hexahydro-1H-1,4-diazepin-1-yl]methyl]-4-(trifluoromethyl)phenoxy]-acetic acid], the IC50 was 89.1 nM.
